Series [1] concerns white mice. In words: inhibition of pentetrazole convulsion (modified Banziger and Hane). The format is in vivo. To be noted: for ED50: Mus musculus, oral; for Inhibition of pentetrazole convulsion Th. I.: therapeutic index. Here is the method: (§1) The antiepileptic effect was investigated on white mice, after oral administration. The inhibition of maximal electroshock (MES) was determined by the method of Swinyard et al. [Swinyard et al. J. Pharmacol. Exp. Ther. 106, 319-330 (1952)]. White mice weighing 20-25 g were subjected to electric shock through corneal electrodes (Parameters: 50 Hz, 45 mA, 0.4 sec.). The total inhibition of the tonic extensor convulsion was considered as criterion of the anti-convulsive effect. The test-substance had been orally administered one hour before the electroshock. The inhibition of pentetrazole convulsion was determined on white mice by the modified method of Banziger and Hane [Banziger, R., Hane, L.D. Arch. Int. Pharmacodyn. 167, 245-249; (1967)]. I." stands for "therapeutic index."

Series [2] is described as follows: acute oral toxicity, graphic method of Litchfield-Wilcoxon, 4 days observation. To be noted: mouse, in vivo; oral, 20 ml/kg, both sexes 18-24 g, 4 days observation. The procedure:
The analgesic effect of the new compounds according to the invention was determined by the method of Wirth et al. (Wirth, W., Gosswald, R., Horlein. K., Risse, Kl. H., Kreiskott, H.: Arch. Int. Pharmacodyn. 115, 1; (1958)). 0.4 ml of 0.5% acetic acid was administered i.p. to white mice, and the characteristic "writhing" reactions were counted after 5 minutes. […] The results are given in Table I. The toxicity data determined on white mice of both sexes weighing 18-24 g belonging to the strain CFLP are also given. Administration was effected with an oral dose of 20 ml/kg. After treatment the animals were kept under observation for 4 days. The toxicity data (LD50 mg/kg) were determined by the graphic method of Litchfield-Wilcoxon [Litchfield, J.T., Wilcoxon, E. W., J Pharmacol. Exp. Therap. 96, 99; (1949)].

Series [3] concerns white mice. The series is described as follows: inhibition of motility, Dews apparatus (Borsy). The format is in vivo. To be noted: for ED50: Mus musculus, oral pretreatment 30 minutes, observation 30 minutes; for Inhibition of motility Th.I.: therapeutic index. The procedure: (§2) The effect on the inhibition of the oriental activity (inhibition of the motility) was investigated on white mice in a Dews apparatus applied with 8 canals by the method of Borsy [Borsy, J., Csanyi, E., Lazar, I., Arc. Int. Pharmacodyn. 124, 1-2 (1960)]. After an oral pretreatment of 30 minutes the number of light-interruptions due to the movements of groups consisting of 3-3 mice was registered. The observation lasted for 30 minutes. The effect of the compounds exerted on the duration of hexobarbital-narcosis was tested by the method of Kaergaard [Kaergaard, N. C., Magnussen, M. P., Kampmann, E., Frey, H. H., Arc. Int. Pharmacodyn. 2, 170; (1967)]. Groups of animals consisting of 6-6 mice were treated.

For series [4], the system named is white mice. The series is described as follows: inhibition of nicotine-lethality (Stone). It counts as in vivo. To be noted: for ED50: Mus musculus, oral, 1 hour before 1.4 mg/kg nicotine. Here is the method: The inhibition of nicotine-lethality was determined on white mice by the method of Stone [Stone, C. A., Mecklenburg, K. L., Torchiana, M. L., Arch. Int. Pharmacodyn.

Series [5] has as its system white mice. In words: inhibition of maximal electroshock (MES) (Swinyard et al.). The format is in vivo. To be noted: for ED50: Mus musculus, oral, 1 hour before electroshock 50 Hz, 45 mA, 0.4 sec, total inhibition of tonic extensor convulsion; for Inhibition of MES Th. I.: therapeutic index. The procedure:
as §1
On the technique in general: Protection in the maximal electroshock model is a classic sign of anticonvulsant action.

Series [6] has as its system white mice. In words: analgesic effect, inhibition of acetic acid "writhing" reactions (Wirth et al.). The format is in vivo. The note with it: for ED50: Mus musculus, po, read-out: Analgesic effect ED50; for Analgesic effect Therap.index: therapeutic index. The procedure:
The analgesic effect of the new compounds according to the invention was determined by the method of Wirth et al. (Wirth, W., Gosswald, R., Horlein. K., Risse, Kl. H., Kreiskott, H.: Arch. Int. Pharmacodyn. 115, 1; (1958)). 0.4 ml of 0.5% acetic acid was administered i.p. to white mice, and the characteristic "writhing" reactions were counted after 5 minutes. The compounds to be tested had been orally administered an hour before the administration of the acetic acid. The activity is expressed as a percentage of the inhibition referred to the data observed on the control group. The results are given in Table I. The toxicity data determined on white mice of both sexes weighing 18-24 g belonging to the strain CFLP are also given. Administration was effected with an oral dose of 20 ml/kg. After treatment the animals were kept under observation for 4 days. The toxicity data (LD50 mg/kg) were determined by the graphic method of Litchfield-Wilcoxon [Litchfield, J.T., Wilcoxon, E. W., J Pharmacol. Exp. Therap. 96, 99; (1949)].
Background: An intraperitoneal irritant provokes the stretching counted in writhing tests.

The subject of another series is mice. In words: potentiating of hexobarbital-narcosis (Kaergaard). It counts as in vivo. To be noted: for ED50: Mus musculus, iv, 40 mg/kg hexobarbital i.v., positive: sleeping period at least 2.5 times control; for Potentiating of narcosis Th.I.: therapeutic index. Here is the method: as §2

Molecules are shown by their SMILES.

For `CN(C)CCCOC1(Cc2ccccc2)CC2CCC1(C)C2(C)C` (single isomer, unassigned) [Example 7, D-(-)-2-benzyl-2-(3'-dimethylaminopropoxy)-1,7,7-trimethyl-bicyclo(2,2,1)heptane], in the series with white mice [1], it took a dose of 66 mg/kg to reach the 50% effect level (ED50) and the “Inhibition of pentetrazole convulsion Th. I.” value turned out to be 18.2. In addition, the LD50 – broadly, the dose at which mortality reaches 50% – at 96 h in series [2] amounted to 1200 mg/kg. Moreover, in the series with white mice [3], the ED50 (commonly the dose that gives a 50% effect, or the effect in half of the subjects) was 90 mg/kg and the “Inhibition of motility Th.I.” value was determined as 13.3. In the series with white mice [4], it took a dose of 25 mg/kg to reach the 50% effect level (ED50) and the “Inhibition of nicotine-lethality Therapeutic index” value is 48.0. For the same compound, in the series on white mice [5], the 50% effect level (ED50) was put at a dose of 56 mg/kg and the “Inhibition of MES Th. I.” value stood at 21.4. In addition, in the series with white mice [6], the ED50 was found to be 70 mg/kg and the “Analgesic effect Therap.index” value is 17.1.

For `CN(C)CCCOC1(Cc2ccccc2)CC2CCC1(C)C2(C)C` (racemic) [Example 1, (±)-2-benzyl-2-(3'-dimethylaminopropoxy)-1,7,7-trimethyl-bicyclo(2,2,1)heptane], in the series with mice, the ED50 came out at 90 mg/kg and the “Potentiating of narcosis Th.I.” value came out at 17.7. In addition, in series [2], the LD50 at 96 h is 1600 mg/kg. Besides, in the series on white mice [3], the ED50 turned out to be 110 mg/kg and the “Inhibition of motility Th.I.” value was determined as 14.5. Further, in the series with white mice [4], the ED50 turned out to be 38 mg/kg and the “Inhibition of nicotine-lethality Therapeutic index” value worked out at 42.1. Also, in the series on white mice [5], it took a dose of 130 mg/kg to reach the 50% effect level (ED50) and the “Inhibition of MES Th. I.” value turned out to be 12.3. For the same compound, in the series on white mice [6], the ED50 is 120 mg/kg and the “Analgesic effect Therap.index” value stood at 13.3.

For `CN(C)CCOC1(c2ccccc2)CC2CCC1(C)C2(C)C` (racemic) [Example 15, (±)-2-(2'-dimethylaminoethoxy)-2-phenyl-1,7,7-trimethyl-bicyclo(2,2,1)heptane], in the series on mice, the ED50 turned out to be 40 mg/kg and the “Potentiating of narcosis Th.I.” value is given as 22.5. The LD50 at 96 h in series [2] came to 900 mg/kg. In the series on white mice [4], it took a dose of 30 mg/kg to reach the 50% effect level (ED50) and the “Inhibition of nicotine-lethality Therapeutic index” value came out at 30.0. Also, in the series on white mice [6], the ED50 was determined as 23 mg/kg and the “Analgesic effect Therap.index” value is recorded as 39.0.

Regarding `CCN(CC)CCOC1(Cc2ccccc2)CC2CCC1(C)C2(C)C` (single isomer, unassigned) [Example 8, D-(+)-2-benzyl-2-(2'-diethylaminoethoxy)-1,7,7-trimethyl-bicyclo(2,2,1)heptane], in the series with mice, the ED50 turned out to be 60 mg/kg and the “Potentiating of narcosis Th.I.” value is 14.2. Besides, in the series on white mice [1], the median effective dose (ED50) was 20 mg/kg and the “Inhibition of pentetrazole convulsion Th. I.” value was determined as 42.5. Besides, the LD50 at 96 h in series [2] was determined as 850 mg/kg. Besides, in the series on white mice [3], the ED50 was 60 mg/kg and the “Inhibition of motility Th.I.” value was 14.2. Moreover, in the series on white mice [4], the 50% effect level (ED50) was put at a dose of 11 mg/kg and the “Inhibition of nicotine-lethality Therapeutic index” value was 77.3. Besides, in the series on white mice [5], it took a dose of 30 mg/kg to reach the 50% effect level (ED50) and the “Inhibition of MES Th. I.” value stood at 28.3. For the same compound, in the series with white mice [6], the ED50 was determined as 45 mg/kg and the “Analgesic effect Therap.index” value is 18.9.

`CC(COC1(Cc2ccccc2)CC2CCC1(C)C2(C)C)CN(C)C` (racemic) [Example 2, (±)-2-benzyl-2-(3'-dimethylamino-2'-methylpropoxy)-1,7,7-trimethyl-bicyclo(2,2,1) heptane]: in the series with mice, the ED50 stood at 15 mg/kg and the “Potentiating of narcosis Th.I.” value was 113.3. In the series on white mice [1], the ED50 is 88 mg/kg and the “Inhibition of pentetrazole convulsion Th. I.” value was determined as 19.3. Moreover, in series [2], the LD50 at 96 h amounted to 1700 mg/kg. Further, in the series with white mice [4], the ED50 worked out at 20 mg/kg and the “Inhibition of nicotine-lethality Therapeutic index” value is on record as 85,0. In the series with white mice [5], the ED50 was 120 mg/kg and the “Inhibition of MES Th. I.” value is 14.2. Besides, in the series on white mice [6], the ED50 was found to be 85 mg/kg and the “Analgesic effect Therap.index” value came out at 20.0.

With `CCN(CC)CCOC1(c2cccs2)CC2CCC1(C)C2(C)C` (racemic) [Example 17, (±)-2-(2'-diethylaminoethoxy)-2-(2"-thienyl)-1,7,7-trimethyl-bicyclo(2,2,1)heptane], the 50% effective dose (ED50) turned out to be 60 mg/kg in the series with white mice [1], 50 mg/kg with white mice [4] and 50 mg/kg in the series with white mice [6]. The “Inhibition of pentetrazole convulsion Th. I.” value with white mice [1] worked out at 16.3. The compound also registered an LD50 at 96 h in series [2] of 980 mg/kg. Besides, the “Analgesic effect Therap.index” value with white mice [6] is listed as 19.6.

Take `OC(CCN1CCCCC1)(c1ccccc1)C1CCCCC1` (stereo not drawn) [Trihexyphenidyl, α-Cyclohexyl-α-phenyl-1-piperidine-propanol, reference compound]: in the series with white mice [4], the ED50 amounted to 40 mg/kg and the “Inhibition of nicotine-lethality Therapeutic index” value is on record as 9.13.

Source of the values: patent publication US4342762A, “Basic ethers and pharmaceutical compositions containing the same” (Egyt Gyogyszervegyeszeti Gyar, priority 1979, dated 1982).
